Assay results taken from US9708318B2, “Bicyclic heterocycles as FGFR4 inhibitors” (Incyte Corporation, priority 2015, dated 2017).
Read-outs that look alike come from different tables or passages of the source.

Legend:
[1] = target: FGFR3 enzyme (Homo sapiens (Human), UniProt P22607); assay: FGFR Enzymatic Assay (FRET peptide phosphorylation), FGFR3; assay type: biochemical; conditions: for FGFR1/FGFR3 IC50 ratio / FGFR4/FGFR3 IC50 ratio: FGFR3 selectivity; for IC50: read-out: FGFR3 IC50
Method: (§1) The inhibitor potency of the exemplified compounds was measured in an enzyme assay that measures peptide phosphorylation using FRET measurements to detect product formation. Inhibitors were serially diluted in DMSO and a volume of 0.5 μL was transferred to the wells of a 384-well plate.
(§2) GraphPad prism3 was used to analyze the data.

[2] = target: FGFR1 (Homo sapiens (Human), UniProt P11362); assay: FGFR Enzymatic Assay (FRET peptide phosphorylation), FGFR1
Chain of FGFR1 (P11362 22-822): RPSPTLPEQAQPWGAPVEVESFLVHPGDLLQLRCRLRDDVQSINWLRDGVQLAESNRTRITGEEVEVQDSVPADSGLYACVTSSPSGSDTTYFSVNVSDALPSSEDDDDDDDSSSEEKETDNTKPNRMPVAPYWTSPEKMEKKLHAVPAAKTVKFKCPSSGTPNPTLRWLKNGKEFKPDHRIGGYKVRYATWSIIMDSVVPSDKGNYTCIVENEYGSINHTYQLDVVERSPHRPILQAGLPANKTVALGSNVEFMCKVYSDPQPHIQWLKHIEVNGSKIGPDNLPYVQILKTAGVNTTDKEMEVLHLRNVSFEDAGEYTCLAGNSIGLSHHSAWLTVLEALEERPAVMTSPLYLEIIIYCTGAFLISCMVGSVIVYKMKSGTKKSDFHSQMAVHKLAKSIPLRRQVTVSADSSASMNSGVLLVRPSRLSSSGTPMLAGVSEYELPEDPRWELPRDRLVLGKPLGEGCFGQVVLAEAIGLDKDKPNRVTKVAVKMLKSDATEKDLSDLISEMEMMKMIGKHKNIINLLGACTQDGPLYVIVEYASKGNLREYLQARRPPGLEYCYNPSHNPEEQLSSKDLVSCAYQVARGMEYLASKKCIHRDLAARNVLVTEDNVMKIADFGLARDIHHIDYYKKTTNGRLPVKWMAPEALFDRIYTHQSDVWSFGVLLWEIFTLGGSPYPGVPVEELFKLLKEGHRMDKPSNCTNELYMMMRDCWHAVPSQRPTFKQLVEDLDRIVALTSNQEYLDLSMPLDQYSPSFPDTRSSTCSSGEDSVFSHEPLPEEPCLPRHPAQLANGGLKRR

[3] = target: FGFR4 (Homo sapiens (Human), UniProt P22455); assay: FGFR Enzymatic Assay (FRET peptide phosphorylation), FGFR4; assay type: biochemical; conditions: for FGFR1/FGFR4 IC50 ratio / FGFR2/FGFR4 IC50 ratio / FGFR3/FGFR4 IC50 ratio: FGFR4 selectivity
Chain of FGFR4 (P22455 22-802): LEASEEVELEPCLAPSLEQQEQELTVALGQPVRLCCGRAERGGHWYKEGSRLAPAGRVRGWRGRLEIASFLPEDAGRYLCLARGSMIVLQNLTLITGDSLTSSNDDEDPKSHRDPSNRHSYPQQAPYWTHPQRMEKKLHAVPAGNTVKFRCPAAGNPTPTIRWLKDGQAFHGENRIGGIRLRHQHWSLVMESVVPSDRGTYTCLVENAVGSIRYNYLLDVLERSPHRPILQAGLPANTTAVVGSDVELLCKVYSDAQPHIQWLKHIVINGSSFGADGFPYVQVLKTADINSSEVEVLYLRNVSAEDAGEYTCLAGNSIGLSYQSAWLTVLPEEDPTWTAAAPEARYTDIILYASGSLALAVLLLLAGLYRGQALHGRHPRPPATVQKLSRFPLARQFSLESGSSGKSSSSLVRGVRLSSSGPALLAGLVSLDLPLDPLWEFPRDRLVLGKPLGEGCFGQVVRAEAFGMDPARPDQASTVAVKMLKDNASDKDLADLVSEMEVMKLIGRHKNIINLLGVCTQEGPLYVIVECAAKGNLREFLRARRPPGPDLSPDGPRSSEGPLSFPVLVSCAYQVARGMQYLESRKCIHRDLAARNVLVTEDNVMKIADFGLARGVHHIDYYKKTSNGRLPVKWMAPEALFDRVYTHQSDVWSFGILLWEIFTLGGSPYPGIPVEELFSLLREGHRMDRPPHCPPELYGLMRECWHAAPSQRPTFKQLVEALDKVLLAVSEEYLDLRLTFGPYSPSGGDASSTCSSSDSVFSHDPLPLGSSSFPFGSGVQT
Method: as §1
(§3) The enzymes were purchased from Millipore or Invitrogen.
as §2

[4] = target: FGFR2 (Homo sapiens (Human), UniProt P21802); assay: FGFR Enzymatic Assay (FRET peptide phosphorylation), FGFR2; assay type: biochemical
Chain of FGFR2 (P21802 22-821): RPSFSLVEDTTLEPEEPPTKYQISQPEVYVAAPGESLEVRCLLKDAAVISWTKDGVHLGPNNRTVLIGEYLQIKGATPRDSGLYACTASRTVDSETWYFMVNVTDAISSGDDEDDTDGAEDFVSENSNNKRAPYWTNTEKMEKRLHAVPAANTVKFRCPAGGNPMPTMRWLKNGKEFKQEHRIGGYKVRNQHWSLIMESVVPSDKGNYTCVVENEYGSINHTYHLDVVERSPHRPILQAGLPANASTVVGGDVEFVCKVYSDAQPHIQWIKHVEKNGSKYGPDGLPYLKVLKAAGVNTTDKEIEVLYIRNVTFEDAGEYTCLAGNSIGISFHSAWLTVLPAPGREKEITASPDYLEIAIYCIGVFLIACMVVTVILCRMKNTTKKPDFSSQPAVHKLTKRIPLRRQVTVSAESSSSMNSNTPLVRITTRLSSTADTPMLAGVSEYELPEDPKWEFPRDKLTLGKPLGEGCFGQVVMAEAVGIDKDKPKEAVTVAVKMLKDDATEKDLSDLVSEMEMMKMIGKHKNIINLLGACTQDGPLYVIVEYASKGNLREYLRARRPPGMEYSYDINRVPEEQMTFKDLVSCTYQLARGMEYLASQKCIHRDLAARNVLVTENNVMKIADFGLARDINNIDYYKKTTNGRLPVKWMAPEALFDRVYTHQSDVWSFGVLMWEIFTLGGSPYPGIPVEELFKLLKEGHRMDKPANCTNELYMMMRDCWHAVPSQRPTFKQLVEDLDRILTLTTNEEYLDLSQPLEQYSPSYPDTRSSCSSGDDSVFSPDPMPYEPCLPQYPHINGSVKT
Method: as §1, §3, §2

[5] = pre-incubated for 5 to 10 minutes
[6] = read-out: FGFR1 IC50, pre-incubated for 4 hours
[7] = FGFR1 IC50 (nM), pre-incubated for 4 hours

Chain of FGFR3 enzyme (P22607 23-806): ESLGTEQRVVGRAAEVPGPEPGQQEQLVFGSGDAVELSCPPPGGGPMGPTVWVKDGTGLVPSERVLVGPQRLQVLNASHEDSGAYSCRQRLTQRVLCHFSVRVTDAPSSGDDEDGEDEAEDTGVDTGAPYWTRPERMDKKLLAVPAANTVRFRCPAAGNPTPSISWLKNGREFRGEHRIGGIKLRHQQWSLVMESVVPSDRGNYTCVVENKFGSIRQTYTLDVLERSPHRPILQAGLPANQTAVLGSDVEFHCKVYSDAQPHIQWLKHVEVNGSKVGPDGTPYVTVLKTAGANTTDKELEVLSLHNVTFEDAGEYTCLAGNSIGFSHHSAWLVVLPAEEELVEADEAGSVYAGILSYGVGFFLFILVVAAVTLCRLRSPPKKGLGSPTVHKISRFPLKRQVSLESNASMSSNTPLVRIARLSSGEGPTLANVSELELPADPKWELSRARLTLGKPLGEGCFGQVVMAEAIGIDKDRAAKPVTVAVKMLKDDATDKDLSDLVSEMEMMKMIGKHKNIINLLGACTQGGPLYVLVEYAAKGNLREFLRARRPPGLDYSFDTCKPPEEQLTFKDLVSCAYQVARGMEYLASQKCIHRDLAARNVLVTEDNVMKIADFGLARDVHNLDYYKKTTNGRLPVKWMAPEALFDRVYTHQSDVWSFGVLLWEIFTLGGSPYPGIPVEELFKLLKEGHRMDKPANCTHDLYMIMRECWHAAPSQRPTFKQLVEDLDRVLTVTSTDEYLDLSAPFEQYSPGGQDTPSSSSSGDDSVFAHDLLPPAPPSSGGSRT

Compound	FGFR1/FGFR3 IC50 ratio ([1]; pre-incubated for 4 hours)	IC50 [1, 5] [nM]	IC50 ([1]; pre-incubated for 4 hours) [nM]	IC50 ([2]; read-out: FGFR1 IC50, pre-incubated for 5 to 10 minutes) [nM]	IC50 [2, 6] [nM]	FGFR1/FGFR4 IC50 ratio [3, 5]	FGFR2/FGFR4 IC50 ratio [3, 5]	FGFR3/FGFR4 IC50 ratio [3, 5]	FGFR1/FGFR4 IC50 ratio ([3]; pre-incubated for 4 hours)	FGFR2/FGFR4 IC50 ratio ([3]; pre-incubated for 4 hours)	FGFR3/FGFR4 IC50 ratio ([3]; pre-incubated for 4 hours)	IC50 [3, 5] [nM]	IC50 ([3]; pre-incubated for 4 hours) [nM]	IC50 [4, 5] [nM]	IC50 ([4]; pre-incubated for 4 hours) [nM]	FGFR4/FGFR3 IC50 ratio ([1]; pre-incubated for 4 hours)	IC50 [2, 7] [nM]	IC50 ([2]; FGFR1 IC50 (nM), pre-incubated for 5 to 10 minutes) [nM]
COc1cc(OC)c(F)c(N2Cc3cnc(-c4cncc(S(=O)(=O)N5CCOCC5)c4)cc3C3(CC3)C2=O)c1F [Example 14, 2′-(2,6-difluoro-3,5-dimethoxyphenyl)-6′-(5-(morpholinosulfonyl)pyridin-3-yl)-1′H-spiro[cyclopropane-1,4′-[2,7]naphthyridin]-3′(2′H)-one]	>5	10 to 30	30 to 200	> 200	> 200	>25	>5	>5	>50	>10	>1	< 10	< 10	30 to 200	30 to 200	–	–	–
COc1cc(OC)c(F)c(N2Cc3cnc(-c4cn(C)nc4C)cc3N(CC3CC3)C2=O)c1F [Example 29, 1-(cyclopropylmethyl)-3-(2,6-difluoro-3,5-dimethoxyphenyl)-7-(1,3-dimethyl-1H-pyrazol-4-yl)-3,4-dihydropyrido[4,3-d]pyrimidin-2(1H)-one]	>1	–	< 10	–	–	–	–	–	–	–	–	–	10 to 30	–	< 10	>5	10 to 30	–
COc1cc(OC)c(F)c(N2Cc3cnc(-c4cn(C)nc4C)cc3N(Cc3ccc4c(c3)OCCO4)C2=O)c1F [Example 38, 3-(2,6-difluoro-3,5-dimethoxyphenyl)-1-((2,3-dihydrobenzo[b][1,4]dioxin-6-yl)methyl)-7-(1,3-dimethyl-1H-pyrazol-4-yl)-3,4-dihydropyrido[4,3-d]pyrimidin-2(1H)-one]	>5	–	< 10	–	–	–	–	–	–	–	–	–	30 to 200	–	10 to 30	>5	30 to 200	–
COc1cc(OC)c(F)c(N2Cc3cnc(-c4cn(C)nc4C)cc3N(c3ccn(C)n3)C2=O)c1F [Example 100, 3-(2,6-difluoro-3,5-dimethoxyphenyl)-7-(1,3-dimethyl-1H-pyrazol-4-yl)-1-(1-methyl-1H-pyrazol-3-yl)-3,4-dihydropyrido[4,3-d]pyrimidin-2(1H)-one]	>5	–	10 to 30	–	–	–	–	–	–	–	–	–	30 to 200	–	10 to 30	>5	30 to 200	–
COc1cc(OC)c(F)c(N2Cc3cnc(-c4ccc(C#N)nc4)cc3C3(CC3)C2=O)c1F [Example 20, 5-(2′-(2,6-difluoro-3,5-dimethoxyphenyl)-3′-oxo-2′,3′-dihydro-1′H-spiro[cyclopropane-1,4′-[2,7]naphthyridine]-6′-yl)picolinonitrile]	>5	–	10 to 30	–	–	–	–	–	–	–	–	–	10 to 30	–	10 to 30	–	30 to 200	–
CCN1C(=O)N(c2c(F)c(OC)cc(OC)c2F)Cc2cnc(-c3cn(CC(=O)N4CCOCC4)nc3C)cc21 [Example 51, 3-(2,6-difluoro-3,5-dimethoxyphenyl)-1-ethyl-7-(3-methyl-1-(2-morpholino-2-oxoethyl)-1H-pyrazol-4-yl)-3,4-dihydropyrido[4,3-d]pyrimidin-2(1H)-one]	>1	–	30 to 200	–	> 200	–	–	–	–	–	–	–	> 200	–	30 to 200	>1	–	–
COc1cc(OC)c(F)c(N2Cc3cnc(-c4ccccc4)cc3C3(CC3)C2=O)c1F [Example 17, 2′-(2,6-difluoro-3,5-dimethoxyphenyl)-6′-phenyl-1′H-spiro[cyclopropane-1,4′-[2,7]naphthyridin]-3′(2′H)-one]	>10	–	10 to 30	–	> 200	–	–	–	–	–	–	–	10 to 30	–	30 to 200	–	–	–
COc1cc(OC)c(F)c(N2Cc3cnc(-c4cn(C)nc4C)cc3N(c3ccc(-n4cccn4)cc3)C2=O)c1F [Example 77, 1-(4-(1H-pyrazol-1-yl)phenyl)-3-(2,6-difluoro-3,5-dimethoxyphenyl)-7-(1,3-dimethyl-1H-pyrazol-4-yl)-3,4-dihydropyrido[4,3-d]pyrimidin-2(1H)-one]	>5	–	< 10	–	–	–	–	–	–	–	–	–	30 to 200	–	< 10	>10	10 to 30	–
CCN1C(=O)N(c2c(F)c(OC)cc(OC)c2F)Cc2cnc(-c3ccc(C(N)=O)nc3)cc21 [Example 184, 5-(3-(2,6-difluoro-3,5-dimethoxyphenyl)-1-ethyl-2-oxo-1,2,3,4-tetrahydropyrido[4,3-d]pyrimidin-7-yl)picolinamide]	>5	–	< 10	–	–	–	–	–	–	–	–	–	10 to 30	–	< 10	>5	10 to 30	–
CCn1cnc(-c2cc3c(cn2)CN(c2c(F)c(OC)cc(OC)c2F)C(=O)C32CC2)c1 [Example 53, 2′-(2,6-difluoro-3,5-dimethoxyphenyl)-6′-(1-ethyl-1H-imidazol-4-yl)-1′H-spiro[cyclopropane-1,4′-[2,7]naphthyridin]-3′(2′H)-one]	>5	–	< 10	–	–	–	–	–	–	–	–	–	10 to 30	–	< 10	>5	10 to 30	–
CCN1C(=O)N(c2c(F)c(OC)cc(OC)c2F)Cc2cnc(-c3ccc(C4(C#N)CCC4)cc3)cc21 [Example 181, 1-(4-(3-(2,6-difluoro-3,5-dimethoxyphenyl)-1-ethyl-2-oxo-1,2,3,4-tetrahydropyrido[4,3-d]pyrimidin-7-yl)phenyl)cyclobutanecarbonitrile]	>5	–	< 10	–	–	–	–	–	–	–	–	–	30 to 200	–	< 10	>10	30 to 200	–
COc1cc(OC)c(F)c(N2Cc3cnc(-c4cn(CCC5CCNCC5)nc4C)cc3C3(CC3)C2=O)c1F [Example 165, 2′-(2,6-difluoro-3,5-dimethoxyphenyl)-6′-(3-methyl-1-(2-(piperidin-4-yl)ethyl)-1H-pyrazol-4-yl)-1′H-spiro[cyclopropane-1,4′-[2,7]naphthyridin]-3′(2′H)-one]	>3	–	< 10	–	–	–	–	–	–	–	–	–	10 to 30	–	< 10	>3	10 to 30	–
CNC(=O)c1ccc(-c2cc3c(cn2)CN(c2c(F)c(OC)cc(OC)c2F)C(=O)C32CC2)cc1 [Example 19, 4-(2′-(2,6-difluoro-3,5-dimethoxyphenyl)-3′-oxo-2′,3′-dihydro-1′H-spiro[cyclopropane-1,4′-[2,7]naphthyridine]-6′-yl)-N-methylbenzamide]	>5	–	< 10	–	–	–	–	–	–	–	–	–	< 10	–	< 10	–	10 to 30	–
COc1cc(OC)c(F)c(N2Cc3cnc(-c4cn(C)nc4C)cc3N(Cc3cnn(C4CC4)c3)C2=O)c1F [Example 124, 1-((1-cyclopropyl-1H-pyrazol-4-yl)methyl)-3-(2,6-difluoro-3,5-dimethoxyphenyl)-7-(1,3-dimethyl-1H-pyrazol-4-yl)-3,4-dihydropyrido[4,3-d]pyrimidin-2(1H)-one]	>10	–	< 10	–	< 10	–	–	–	–	–	–	–	< 10	–	< 10	>10	–	–
COc1cc(OC)c(F)c(N2Cc3cnc(-c4cncc(F)c4)cc3C3(CC3)C2=O)c1F [Example 5, 2′-(2,6-difluoro-3,5-dimethoxyphenyl)-6′-(5-fluoropyridin-3-yl)-1′H-spiro[cyclopropane-1,4′-[2,7]naphthyridin]-3′(2′H)-one]	>3	10 to 30	10 to 30	–	–	>10	>5	>4	>10	>5	>1	< 10	< 10	10 to 30	10 to 30	–	30 to 200	30 to 200
